This note sets out measurements from patent US20250042894A1, “PROTEIN TYROSINE PHOSPHATASE INHIBITORS AND METHODS OF USE THEREOF” (Calico Life Sciences LLC, priority 2021, published 2025).

Like-named read-outs stand apart in the source and are kept apart here.

In test [1] the target is T1, His tagged PTPN2 (TC45) protein (Homo sapiens, UniProt P17706).
T1 construct: His; made in house
T1 sequence (P17706 1-387 isoform P17706-2): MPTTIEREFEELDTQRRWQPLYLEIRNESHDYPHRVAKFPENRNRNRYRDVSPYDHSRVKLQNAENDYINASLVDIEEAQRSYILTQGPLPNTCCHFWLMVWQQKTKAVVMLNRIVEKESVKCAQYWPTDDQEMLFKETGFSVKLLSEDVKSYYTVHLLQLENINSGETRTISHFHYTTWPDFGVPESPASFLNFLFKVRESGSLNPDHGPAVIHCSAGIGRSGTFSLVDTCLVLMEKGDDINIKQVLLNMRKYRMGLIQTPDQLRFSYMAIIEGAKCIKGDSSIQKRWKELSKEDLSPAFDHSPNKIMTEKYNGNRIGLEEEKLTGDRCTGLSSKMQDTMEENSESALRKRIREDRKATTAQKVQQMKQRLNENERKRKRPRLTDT
Kind of test: Mobility Shift Assay (MSA) for PTPN2 inhibitors. It counts as biochemical. The conditions noted are these: for IC50: enzyme 0.5 nM, substrate 2 μM, 10 minutes preincubation at room temperature; for Thiochromane x-fold>potency biochemical: Table 3, PTPN2 MSA IC50 of chromane comparator over thiochromane. Summed up:
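Enzyme (0.5 nM) preincubated 10 min at RT with compound (12-point, 1:3 dilution) in 50 mM HEPES pH 7.5, 10 mM EDTA, 2 mM DTT; OG488-labelled phospho-insulin-receptor peptide substrate (2 μM) then added for 10 min. After quench, dephosphorylation measured by microfluidic mobility shift (ex 488/em 530 nm); IC50 from % inhibition.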

Test [2] has as its target T2, His tagged full-length PTPN1 protein (Homo sapiens, UniProt P18031).
T2 construct: His; made in house
T2 sequence (P18031 1-435): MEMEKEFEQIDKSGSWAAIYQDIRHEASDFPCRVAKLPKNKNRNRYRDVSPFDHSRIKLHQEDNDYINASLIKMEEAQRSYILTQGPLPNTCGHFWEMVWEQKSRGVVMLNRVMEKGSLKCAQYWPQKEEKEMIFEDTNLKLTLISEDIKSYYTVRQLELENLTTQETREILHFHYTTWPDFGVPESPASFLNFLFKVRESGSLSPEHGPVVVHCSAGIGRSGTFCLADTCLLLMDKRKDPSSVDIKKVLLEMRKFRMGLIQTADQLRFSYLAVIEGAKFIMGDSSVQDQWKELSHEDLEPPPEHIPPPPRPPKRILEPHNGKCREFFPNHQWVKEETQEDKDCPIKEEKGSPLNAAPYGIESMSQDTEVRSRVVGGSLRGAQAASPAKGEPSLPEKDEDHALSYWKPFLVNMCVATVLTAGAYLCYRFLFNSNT
The test can be described thus: Mobility Shift Assay (MSA) for PTPN1 inhibitors. In kind it is biochemical. Particulars: enzyme 0.5 nM, substrate 2 μM, 10 minutes preincubation at room temperature. The method, then:
Example 44: Mobility Shift Assay (MSA) Used to Determine Potency of PTPN1 Inhibitors
Compound activity was determined using in house His tagged full-length PTPN1 protein (SEQ ID NO: 3) in an in vitro enzymatic reaction. The enzymatic assay used to determine activity is a mobility shift assay using a LabChip EZ Reader by Caliper Life Sciences. The enzymatic reaction was carried out in assay buffer (50 mM HEPES pH 7.5, 1 mM EGTA, 10 mM EDTA, 0.010% Tween® 20, and 2 mM DTT). The compounds were dispensed on a white 384 well ProxiPlate™ (PerkinElmer Cat #6008289) plate using a Labcyte Echo® liquid handler at varying concentrations (12 point, 1:3 dilution). The enzyme (at 0.5 nM) was incubated with compound for 10 minutes at room temperature. Thereafter, the substrate (phosphorylated insulin receptor probe sequence: ((OG488)-(NH—CH2—CH2—O—CH2—CH2—O—CH2—CO)-T-R-D-I—(PY)-E-T-D-Y—Y—R—K—K—NH2) (SEQ ID NO: 2) was added at 2 μM to the plates and incubated for another 10 minutes at room temperature. Finally, a quench solution (water and 4-bromo-3-(2-oxo-2-propoxyethoxy)-5-(3-{[1-(phenylmethanesulfonyl)piperidin-4-yl]amino}phenyl)thiophene-2-carboxylic acid) was added to the plates, which were then run on the EZ Reader (excitation 488 nm, emission 530 nm) to measure % conversion (the amount of phosphorylated substrate which was de-phosphorylated by PTPN1). […] The % inhibition was then used to calculate the IC50 values.

In test [3] the test system is IFNγ-induced STAT1 phosphorylation (pSTAT1) in B16F10 cells. Kind of test: B16F10 Phospho-STAT1 HTRF proximal pharmacodynamic (PD) assay. It counts as cell-based, murine. Particulars: for EC50: B16-F10; for Thiochromane x-fold>potency cellular: pSTAT1 EC50 of chromane comparator over thiochromane. The method, boiled down: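 Murine B16F10 melanoma cells dosed 3 h at 37 °C (10-point, 3-fold dilution from 50 μM top dose), then stimulated 10 min with recombinant mouse IFNγ (100 nM final) and stopped with 3.3 μM staurosporine for 1 h. pSTAT1 in lysates detected by HTRF (Eu cryptate/d2 antibodies, 3 h RT, 665 nm emission); EC50 from dose-response curves.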

Setting [4] is: Table 2, 3 hours compound, then mouse IFNγ 100 nM 10 minutes, top dose 50 μM, read-out: B16F10 IFNγ Induced pSTAT1 EC50.
[5] abbreviates: Mus musculus, Table 3, B16F10 cells, IFNγ-induced, thiochromanes (X = S) and chromane comparators (X = O), read-out: pSTAT1 EC50.

As for `O=C1CN(c2c(O)cc3c(c2F)C[C@H](NCCC2CCCCC2)CS3)S(=O)(=O)N1` [Compound 118, 5-{(3S)-3-[(2-cyclohexylethyl)amino]-5-fluoro-7-hydroxy-3,4-dihydro-2H-1-benzothiopyran-6-yl}-1λ^6,2,5-thiadiazolidine-1,1,3-trione], the IC50 in test [1] and in test [2] was less than 10 nM each time. Further, the EC50 in test [3] (setting [4]) came out at 4220 nM.
Consider `O=C1CN(c2c(O)cc3c(c2F)C[C@H](NCCC2CCCC2)CS3)S(=O)(=O)N1` [Compound 120, 5-{(3S)-3-[(2-cyclopentylethyl)amino]-5-fluoro-7-hydroxy-3,4-dihydro-2H-1-benzothiopyran-6-yl}-1λ^6,2,5-thiadiazolidine-1,1,3-trione], for which the 50% inhibitory concentration (IC50) in test [1] and in test [2] was less than 10 nM in each case. The EC50 in test [3] (setting [4]) worked out at 1010 nM.
As to `O=C1CN(c2c(O)cc3c(c2F)C[C@H](NCCC2CCOC2)CS3)S(=O)(=O)N1` (stereo partly drawn) [Compound 114, 5-[(3S)-5-fluoro-7-hydroxy-3-{[2-(oxolan-3-yl)ethyl]amino}-3,4-dihydro-2H-1-benzothiopyran-6-yl]-1λ^6,2,5-thiadiazolidine-1,1,3-trione], the “Thiochromane x-fold>potency biochemical” value in test [1] worked out at 6.0. Further, the IC50 was less than 10 nM in test [1] and 10 to 100 nM in test [2]. Also, the concentration giving a half-maximal response (EC50) in test [3] (setting [4]) and in test [3] (setting [5]) was 1780 nM each time. For the same molecule, in test [3] (Table 3), the “Thiochromane x-fold>potency cellular” value was determined as 12.7.
Regarding `CCCN[C@@H]1CSc2cc(O)c(N3CC(=O)NS3(=O)=O)c(F)c2C1` [Compound 107, 5-[(3S)-5-fluoro-7-hydroxy-3-(propylamino)-3,4-dihydro-2H-1-benzothiopyran-6-yl]-1λ^6,2,5-thiadiazolidine-1,1,3-trione], the IC50 in test [1] and in test [2] was 10 to 100 nM in each case. Moreover, the EC50 in test [3] (setting [4]) was found to be 3960 nM.
Consider `O=C1CN(c2c(O)cc3c(c2F)C[C@H](NCC2(F)CC2)CS3)S(=O)(=O)N1` [Compound 125, 5-[(3S)-5-fluoro-3-{[(1-fluorocyclopropyl)methyl]amino}-7-hydroxy-3,4-dihydro-2H-1-benzothiopyran-6-yl]-1λ^6,2,5-thiadiazolidine-1,1,3-trione], for which the 50% inhibitory concentration (IC50) in test [1] and in test [2] was 10 to 100 nM in each case. The EC50 in test [3] (setting [4]) was more than 50000 nM.
Turning to `O=C1CN(c2c(O)cc3c(c2F)C[C@H](NCCc2ccccc2)CS3)S(=O)(=O)N1` [Compound 123, 5-{(3S)-5-fluoro-7-hydroxy-3-[(2-phenylethyl)amino]-3,4-dihydro-2H-1-benzothiopyran-6-yl}-1λ^6,2,5-thiadiazolidine-1,1,3-trione], the IC50 in test [1] was less than 10 nM; in test [2], 10 to 100 nM. Besides, the EC50 in test [3] (setting [4]) amounted to 2760 nM.
On the same counts, the results for `CC(CCN[C@@H]1CSc2cc(O)c(N3CC(=O)NS3(=O)=O)c(F)c2C1)c1ccccc1` (stereo partly drawn) [Compound 134, 5-{(3S)-5-fluoro-7-hydroxy-3-[(3-phenylbutyl)amino]-3,4-dihydro-2H-1-benzothiopyran-6-yl}-1λ^6,2,5-thiadiazolidine-1,1,3-trione] are less than 10 nM, 10 to 100 nM and more than 50000 nM.
For `CC(C)N[C@@H]1CSc2cc(O)c(N3CC(=O)NS3(=O)=O)c(F)c2C1` [Compound 116, 5-{(3S)-5-fluoro-7-hydroxy-3-[(propan-2-yl)amino]-3,4-dihydro-2H-1-benzothiopyran-6-yl}-1λ^6,2,5-thiadiazolidine-1,1,3-trione], in that order: 10 to 100 nM, more than 100 nM and 17200 nM.
On the same counts, the results for `O=C1CN(c2c(O)cc3c(c2F)C[C@H](NCC2CC2(F)F)CS3)S(=O)(=O)N1` (stereo partly drawn) [Compound 126, 5-[(3S)-3-{[(2,2-difluorocyclopropyl)methyl]amino}-5-fluoro-7-hydroxy-3,4-dihydro-2H-1-benzothiopyran-6-yl]-1λ^6,2,5-thiadiazolidine-1,1,3-trione] are 10 to 100 nM, 10 to 100 nM and 25500 nM.
As to `O=C1CN(c2c(O)cc3c(c2F)C[C@H](NCCC2(CO)CCC2)CS3)S(=O)(=O)N1` [Compound 104, 5-[(3S)-5-fluoro-7-hydroxy-3-({2-[1-(hydroxymethyl)cyclobutyl]ethyl}amino)-3,4-dihydro-2H-1-benzothiopyran-6-yl]-1λ^6,2,5-thiadiazolidine-1,1,3-trione], the IC50 in test [1] is less than 10 nM; in test [2] it was 10 to 100 nM. Besides, in test [3] (setting [4]), the EC50 was determined as 3350 nM.
On the same counts, the results for `O=C1CN(c2c(O)cc3c(c2F)C[C@H](NCCC2CC(F)(F)C2)CS3)S(=O)(=O)N1` [Compound 117, 5-[(3S)-3-{[2-(3,3-difluorocyclobutyl)ethyl]amino}-5-fluoro-7-hydroxy-3,4-dihydro-2H-1-benzothiopyran-6-yl]-1λ^6,2,5-thiadiazolidine-1,1,3-trione] are less than 10 nM, 10 to 100 nM and 723 nM.
Regarding `CC(C)(C)OC(=O)N1CCC(CN[C@@H]2CSc3cc(O)c(N4CC(=O)NS4(=O)=O)c(F)c3C2)CC1` [Compound 141, tert-butyl 4-({[(3S)-5-fluoro-7-hydroxy-6-(1,1,4-trioxo-1λ^6,2,5-thiadiazolidin-2-yl)-3,4-dihydro-2H-1-benzothiopyran-3-yl]amino}methyl)piperidine-1-carboxylate], the “Thiochromane x-fold>potency biochemical” value in test [1] is recorded as 1.0. The IC50 in test [1] and in test [2] was 10 to 100 nM throughout. Moreover, the EC50 in test [3] (setting [4]) and in test [3] (setting [5]) was 6970 nM each time. Moreover, in test [3] (Table 3), the “Thiochromane x-fold>potency cellular” value is listed as more than 7.2.
For `O=C1CN(c2c(O)cc3c(c2F)C[C@H](NCC2CC2)CS3)S(=O)(=O)N1` [Compound 111, 5-{(3S)-3-[(cyclopropylmethyl)amino]-5-fluoro-7-hydroxy-3,4-dihydro-2H-1-benzothiopyran-6-yl}-1λ^6,2,5-thiadiazolidine-1,1,3-trione], the IC50 in test [1] and in test [2] was 10 to 100 nM in each case. For the same molecule, the EC50 in test [3] (setting [4]) was determined as 7980 nM.
With `CC(C)(CO)CCN[C@@H]1CSc2cc(O)c(N3CC(=O)NS3(=O)=O)c(F)c2C1` [Compound 106, 5-{(3S)-5-fluoro-7-hydroxy-3-[(4-hydroxy-3,3-dimethylbutyl)amino]-3,4-dihydro-2H-1-benzothiopyran-6-yl}-1λ^6,2,5-thiadiazolidine-1,1,3-trione], the IC50 in test [1] was less than 10 nM; in test [2] it was 10 to 100 nM. Also, the EC50 in test [3] (setting [4]) amounted to 11900 nM.
